Measurements from US5972955A, “Water soluble C-ring analogues of 20(S)-camptothecin” (Dr. Reddy's Research Foundation, priority 1996, dated 1999).

System: NCI's 60 human tumor cell line assay
Assay: NCI 60 human tumor cell line assay, mean growth inhibition (Table 1)
Format: cell-based
Details: read-out: IC50 = the mean value of the minimum drug concentration of the agent required to produce 50% cell growth inhibition (GI50); mean over NCI's 60 human tumor cell lines; 48 h; Sulforhodamine B
Description: Inoculates were allowed a preincubation period of 24 h at 37° C. for stabilization.
^a IC50 = the mean value of the minimum drug concentration (μm) of
NCI's 60 human tumor cell line assay.
In the case of `CC[C@@]1(O)C(=O)OCc2c1cc1n(c2=O)C(NCCN(C)C)c2cc3ccccc3nc2-1` (stereo partly drawn) [Example 4, 5-(N,N-Dimethylethylenediamino)camptothecin], the IC50 is reported as over 30 µM. For `CC[C@@]1(O)C(=O)OCc2c1cc1n(c2=O)C(NCc2ccccc2)c2cc3ccccc3nc2-1` (stereo partly drawn) [Example 5, 5-Benzylaminocamptothecin], the IC50 was over 30 µM. `CC[C@@]1(O)C(=O)OCc2c1cc1n(c2=O)C(NCCCl)c2cc3ccccc3nc2-1` (stereo partly drawn) [Example 6, 5-(2'-chloroethylamino)camptothecin] showed an IC50 of 19 µM. Work on `CC[C@@]1(O)C(=O)OCc2c1cc1n(c2=O)C(NCCN(C)C)c2cc3c(OC)cccc3nc2-1` (stereo partly drawn) [Example 7, 5-(N,N-Dimethylethylenediamino)-9-methoxycamptothecin] yielded an IC50 of 9.54 µM. Molecule `CC[C@@]1(O)C(=O)OCc2c1cc1n(c2=O)C(NCC(O)CO)c2cc3c(OC)cccc3nc2-1` (stereo partly drawn) [Example 9] has an IC50 of 6.6 µM. `CC[C@@]1(O)C(=O)OCc2c1cc1n(c2=O)C(NCCCCO)c2cc3c(OC)cccc3nc2-1` (stereo partly drawn) [Example 10, 5-(4'-hydroxybutylamino)-9-methoxycamptothecin] showed an IC50 of 13.1 µM. `CC[C@@]1(O)C(=O)OCc2c1cc1n(c2=O)C(NCCN2CCCC2)c2cc3ccccc3nc2-1` (stereo partly drawn) [Example 15, 5-(Pyrrolidinoethylamino)camptothecin] showed an IC50 of over 30 µM. `CC[C@@]1(O)C(=O)OCc2c1cc1n(c2=O)C(NCCN2CCCCC2)c2cc3ccccc3nc2-1` (stereo partly drawn) [Example 16, 5-(Piperidinoethylamino)camptothecin] gave an IC50 of 23.4 µM.

System: Human Serum Albumin
Assay: not given
Details: in the presence of HSA at 37° C.; cited from earlier work
In the case of `CCc1c2c(nc3ccc(OC(=O)N4CCC(N5CCCCC5)CC4)cc13)-c1cc3c(c(=O)n1C2)COC(=O)[C@]3(O)CC` [CPT-11], the “percentage (%) of lactone form at equilibrium (in words)” value (“percentage (%) of lactone form” for short) is listed as “a higher percentage (%) of lactone form at equilibrium than 20(S) camptothecin of the formula 2 and 9-aminocamptothecin of the formula 5”. In the case of `CCc1c2c(nc3ccc(O)cc13)-c1cc3c(c(=O)n1C2)COC(=O)[C@]3(O)CC` [SN-38, 7-ethyl-10-hydroxycamptothecin], the “percentage (%) of lactone form” value is given as “a higher percentage (%) of lactone form at equilibrium than 20(S) camptothecin of the formula 2 and 9-aminocamptothecin of the formula 5”. In the case of `CC[C@@]1(O)C(=O)OCc2c1cc1n(c2=O)Cc2cc3c(CN(C)C)c(O)ccc3nc2-1` [Topotecan], the “percentage (%) of lactone form” value is given as “a higher percentage (%) of lactone form at equilibrium than 20(S) camptothecin of the formula 2 and 9-aminocamptothecin of the formula 5”.

System: not given
Assay: not given
Details: compared with 20(RS)-camptothecin; cited from earlier work
In the case of `CCc1c2c(nc3ccc(OC)cc13)-c1cc3c(c(=O)n1C2)COC(=O)[C@]3(N)CC` [formula 6], the “in vivo antitumor activity (in words)” value is listed as “increased in vivo antitumor activity than 20(RS)-camptothecin”.
